The nature of data set [1]: Octanol-water partition coefficient, logP of the compound. Format: physicochemical.
For data set [2], the system named is MCF7. The data set is described as follows: Cytotoxicity against human MCF7 cells assessed as cell viability at 10 uM incubated for 48 hrs by MTT assay. It is filed as toxicity, cell-based. As to conditions: mcf7, 48 h. (In general: Formazan colour is commonly taken as a measure of viable cells.)
The subject of data set [3] is MCF7. The data set is described as follows: Potentiation of MCLOP induced antiproliferative activity against human MCF7 cells assessed as cell survial rate in presence of light irradiation at 10 uM and measured after 48 hrs by MTT assay. Format: functional.
Data set [4] has as its system MCF7. The experiment in a line: Induction of cell membrane permeability in human MCF7 cells at 5 uM in presence of light irradiation by confocal microscopy analysis. It is filed as functional.
Data set [5] relates to MCF7. The experiment in a line: Antiproliferative activity against human MCF7 cells assessed as cell viability in light irradiation and measured after 48 hrs by MTT assay. Format: functional, cell-based. Conditions: MCF7, light or radiation study.
Data set [6] deals with MCF7. The experiment in a line: Antiproliferative activity against human MCF7 cells assessed as cell viability in dark incubated for 48 hrs by MTT assay. Format: functional, cell-based. As to conditions: MCF7, 48 h.
The nature of data set [7]: Toxicity in BALB/c nude mouse xenografted with human MCF7 cells assessed as effect on body weight at 5 mg/kg, ip administered once daily for 15 days in presence of light irradiation. Format: organism-based. As to conditions: in vivo, 360 h, time 15 day. In general terms: A xenograft is tissue or cells of one species grown in another, often human tumour cells in immunodeficient mice.

The subject of data set [8] is MCF7. The data set is described as follows: Induction of ROS generation in human MCF7 cells assessed as increase in ROS level at 5 uM for 10 mins by DCFH-DA staining-based flow cytometry. It is filed as functional.
In data set [9] the test system is B16-F10. The data set is described as follows: Antiproliferative activity against mouse B16-F10 cells assessed as cell viability in dark incubated for 48 hrs by MTT assay. It is filed as functional, cell-based. Conditions: B16-F10, 48 h.
Data set [10] concerns B16-F10. The experiment in a line: Antiproliferative activity against mouse B16-F10 cells assessed as cell viability in light irradiation and measured for 48 hrs by MTT assay. Format: functional, cell-based. As to conditions: B16-F10, light or radiation study.
The test system of data set [11] is MCF7. The experiment in a line: Potentiation of MCLOP induced autophagy in human MCF7 cells assessed as increase in […] protein ratio level at 5 uM and measured after 24 hrs by western blot analysis. It is filed as functional, cell-based.
For data set [12], the system named is MCF7. The experiment in a line: Potentiation of MCLOP induced cell membrane permeability in human MCF7 cells at 5 uM in presence of light irradiation by confocal microscopy analysis. It is filed as functional.
In data set [13] the test system is MCF7. The data set is described as follows: Potentiation of MCLOP induced autophagy in human MCF7 cells assessed as induction of autophagosomes formation by measuring increase LC3 puncta at 5 uM measured after 24 hrs by confocal microscopic analysis. It is filed as functional, cell-based.
The nature of data set [14]: Toxicity in BALB/c nude mouse xenografted with human MCF cells assessed as MCLOP induced morphological changes in heart at 5 mg/kg, ip administered once daily for 15 days by H and E staining based analysis. It is filed as organism-based. Conditions: in vivo, 360 h, time 15 day.
Data set [15] has as its system MCF7. The experiment in a line: Potentiation of MCLOP induced ROS generation in human MCF7 cells assessed as increase in ROS level at 5 uM for 10 mins by DCFH-DA staining-based flow cytometry. It is filed as functional.
The subject of data set [16] is MCF7. The experiment in a line: Potentiation of MCLOP induced increase in HClO level in human MCF7 cells by fluorescence method. It is filed as functional.
Data set [17] relates to MCF7. The experiment in a line: Potentiation of MCLOP induced cell membrane permeability in human MCF7 cells at 5 uM in dark by confocal microscopy analysis. Format: functional.
Data set [18] relates to MCF7. The data set is described as follows: Potentiation of MCLOP induced autophagy in human MCF7 cells assessed as decrease in p62 protein level at 5 uM measured after 24 hrs by western blot analysis. It is filed as functional, cell-based. A general note: A western blot detects proteins with antibodies after separation by electrophoresis.
Data set [19] can be described thus: Effect on HClO level in human MCF7 cells by fluorescence method. Format: functional.
A short description of data set [20]: Toxicity in BALB/c nude mouse xenografted with human MCF cells assessed as MCLOP induced morphological changes in kidney at 5 mg/kg, ip administered once daily for 15 days by H and E staining based analysis. It is filed as organism-based. As to conditions: in vivo, 360 h, time 15 day.
Data set [21] is described as follows: Toxicity in BALB/c nude mouse xenografted with human MCF cells assessed as MCLOP induced morphological changes in liver at 5 mg/kg, ip administered once daily for 15 days by H and E staining based analysis. It is filed as organism-based. Conditions: in vivo, 360 h, time 15 day.
The test system of data set [22] is MCF7. The experiment in a line: Potentiation of MCLOP induced antitumor activity against human MCF7 cells xenografted in Balb/c nude mouse assessed as tumor growth inhibition at 5 mg/kg, ip administered once daily for 15 days in presence of light irradiation. Format: functional, organism-based. As to conditions: time 15.0 day.
The nature of data set [23]: Toxicity in BALB/c nude mouse xenografted with human MCF cells assessed as MCLOP induced morphological changes in spleen at 5 mg/kg, ip administered once daily for 15 days by H and E staining based analysis. Format: organism-based. As to conditions: in vivo, 360 h, time 15 day.
Data set [24] can be described thus: Toxicity in BALB/c nude mouse xenografted with human MCF cells assessed as MCLOP induced morphological changes in lung at 5 mg/kg, ip administered once daily for 15 days by H and E staining based analysis. It is filed as organism-based. As to conditions: in vivo, 360 h, time 15 day.

Active and inactive are the calls of the source. The rule behind the calls is not given here.

One may read the logP as the decadic logarithm of the partition coefficient of the neutral form, usually between octanol and water. Higher therefore signals higher lipophilicity. Regarding `COc1cc(/C=C/C(=O)CC(=O)/C=C/c2ccc(O)c(OC)c2)ccc1O` [CURCUMIN], the logP in data set [1] came to 2.04. Moreover, the Activity result in the data set with MCF7 [2] was “Non-Toxic”; in the data set with MCF7 [3] it was 20%.
A word on the IC50: it is the midpoint of a concentration-inhibition curve. On to `CN(C)c1ccc2c(c1)Sc1cc(N(C)C)ccc1N2C(=O)NCCN1C(=O)c2cccc3cc([N+](=O)[O-])cc(c23)C1=O`, for which the “fold change (FC)” value in the data set with MCF7 [4] is on record as 4.1; with MCF7 [8], 3.1. For the same molecule, the 50% inhibitory concentration (IC50) in the data set with MCF7 [5] is 12.7 µM; with MCF7 [6], over 40 µM; with B16-F10 [9], over 40 µM; in the data set on B16-F10 [10], 30.8 µM. The Activity result in data set [7] is recorded as “Non-Toxic”.
Consider `COc1cc(/C=C/C(=O)CC(=O)/C=C/c2ccc(OC(=O)CCCC[C@@H]3SC[C@@H]4NC(=O)N[C@@H]43)c(OC)c2)ccc1O`, for which the lipophilicity (logP) in data set [1] was 0.91. Further, the result with MCF7 [11], in the data set on MCF7 [13], in the data set on MCF7 [18] and with MCF7 [22] was Active. For the same molecule, the Activity result is “Non-Toxic” in data set [7]; “Non-Toxic” in data set [14]; “Dde” in the data set on MCF7 [8] (DDE = dose-dependent effect); “Non-Toxic” in data set [20]; “Non-Toxic” in data set [21]; “Non-Toxic” in data set [23]. Further, the Activity result in [24] is on record as “Non-Toxic”. The “fold change (FC)” value in the data set on MCF7 [12] is 5.3; in the data set on MCF7 [15], 5.6; in the data set on MCF7 [16] it was 2.2; in the data set with MCF7 [17], 3; in data set [19], 2.3.
On to `CN(C)c1ccc2nc3ccc(N(C)C)cc3[s+]c2c1` [METHYLENE BLUE ANHYDROUS], for which the IC50 in the data set with MCF7 [5] was 10.6 µM; in the data set on MCF7 [6], 14.6 µM; in the data set on B16-F10 [9], 7.02 µM; with B16-F10 [10] it was 5.48 µM.

Source of the values: ChEMBL document CHEMBL5154663, “Biotinylated curcumin as a novel chemosensitizer enhances naphthalimide-induced autophagic cell death in breast cancer cells” (Eur J Med Chem, 2022).
